From US10479789B2, “Pyrido[1,2-A]pyrimidone analog, crystal form thereof, intermediate thereof and preparation method therefor” (Chia Tai Tianqing Pharmaceutical Group Co., Ltd., priority 2015, dated 2019)

Key:
PI3Kδ = PI3Kδ (Homo sapiens, UniProt O00329); experiment: ADP-Glo Assay II, PI3Kδ; format: biochemical; settings: read-out: IC50 for inhibition of PI3Kδ activity
Protocol: 1) The compound was diluted using Echo from Labcyte company, 50 nL of the compound was transferred into an assay plate, and centrifuged at a speed of 1000 rpm for 10 sec.
2) A kinase/lipid substrate mixed solution and a kinase reaction buffer/lipid substrate mixed solution were prepared; the kinase/lipid substrate mixed solution was added into columns 3-24 of the assay plate, 3 μL per well; the kinase reaction buffer/lipid substrate mixed solution was added into columns 1-2 of the assay plat, 3 μL per well; and the plate was centrifuged at a speed of 1000 rpm for 10 sec.
3) An ATP solution was prepared, and added into the assay plate, 2 μL per well; the plate was centrifuged at a speed of 1000 rpm for 10 sec, shaken and mixed in 2nd gear mode on a plate shaker for 1 min, further centrifuged at a speed of 1000 rpm for 10 sec, and incubated for 120 min at 23° C. […]
5) A kinase detection reagent was prepared, added into the assay plate, 10 μL per well; the plate was centrifuged at a speed of 1000 rpm for 10 sec, shaken and mixed in 2nd gear mode on a plate shaker for 1 min, further centrifuged at a speed of 1000 rpm for 10 sec, incubated for 30 min at 23° C.; and then read on the multi-marker detector Envision.
IC50 results were analyzed by XLfit5 (Formula 205) of IDBS company.

MCF-7 cells = experiment: In vitro test of cell activity, insulin-stimulated MCF-7 cells, ELISA-One; format: cell-based; settings: Homo sapiens, MCF7, 2 hours compound, insulin 30 minutes
Protocol: 1) MCF-7 cells were inoculated at the density of 2.5×10^4 cells/well into 96-well plates (the culture medium used should be a complete culture medium containing 10% FBS).
2) On the next day, the medium in each well was drawn out.
3) Insulin was dissolved in a culture medium without serum, added to the cultured cells and incubated for 30 minutes, wherein the final concentration of insulin was 10 mg/mL.
4) A lysis solution was prepared according to the following method during the waiting period for the reaction: • a) Enhancer solution was removed from the refrigerator to melt in advance. • b) Enhancer solution was diluted 10-fold with the 5× Lysis Buffer to give a concentrated lysis solution. • c) The concentrated lysis solution was diluted 5-fold with double distilled water to give the lysis solution.
5) The medium in each well was completely removed and each well was quickly rinsed with PBS once.
6) 150 μL of the freshly prepared lysis solution was added to each well and shaken at room temperature for 10 min.
7) After confirming that all cells were detached, the lysis solution together with cell debris was transferred into a 1.5 mL tube. […]
9) The number of strips of ELISA-one micro-well plate that is required was calculated. […]
15) The corresponding ELISA-One filter group was assembled and used to read the fluorescence signal intensity.

Sequence of PI3Kδ (O00329 whole entry): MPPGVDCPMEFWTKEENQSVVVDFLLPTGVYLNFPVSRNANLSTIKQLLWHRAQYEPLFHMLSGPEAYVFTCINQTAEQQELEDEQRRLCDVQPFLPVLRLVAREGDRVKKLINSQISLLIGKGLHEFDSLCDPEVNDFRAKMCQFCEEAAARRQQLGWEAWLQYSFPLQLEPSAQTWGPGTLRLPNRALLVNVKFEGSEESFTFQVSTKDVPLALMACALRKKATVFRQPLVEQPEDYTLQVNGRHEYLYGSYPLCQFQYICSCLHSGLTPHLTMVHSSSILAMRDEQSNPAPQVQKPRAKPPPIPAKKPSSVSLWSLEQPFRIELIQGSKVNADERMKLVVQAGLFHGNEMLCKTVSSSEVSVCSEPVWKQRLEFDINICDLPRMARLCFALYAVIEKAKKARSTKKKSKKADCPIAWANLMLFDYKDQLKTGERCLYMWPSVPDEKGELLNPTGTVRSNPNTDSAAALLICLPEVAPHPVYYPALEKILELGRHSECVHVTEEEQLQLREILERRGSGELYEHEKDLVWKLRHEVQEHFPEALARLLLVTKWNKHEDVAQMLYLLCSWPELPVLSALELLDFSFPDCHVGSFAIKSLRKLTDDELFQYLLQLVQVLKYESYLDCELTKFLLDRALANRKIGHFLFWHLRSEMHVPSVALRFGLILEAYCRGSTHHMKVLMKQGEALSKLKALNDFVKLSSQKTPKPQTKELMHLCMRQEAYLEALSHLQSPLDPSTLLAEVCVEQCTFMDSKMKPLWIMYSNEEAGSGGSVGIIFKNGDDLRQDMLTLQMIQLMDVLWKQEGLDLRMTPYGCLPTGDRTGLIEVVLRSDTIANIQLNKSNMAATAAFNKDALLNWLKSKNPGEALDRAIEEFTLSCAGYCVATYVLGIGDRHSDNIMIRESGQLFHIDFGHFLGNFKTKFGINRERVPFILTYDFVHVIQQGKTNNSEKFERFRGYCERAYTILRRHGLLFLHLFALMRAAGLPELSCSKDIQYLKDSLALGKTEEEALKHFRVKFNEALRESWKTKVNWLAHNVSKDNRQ
Sequence of PI3Kδ (P27986 whole entry partner): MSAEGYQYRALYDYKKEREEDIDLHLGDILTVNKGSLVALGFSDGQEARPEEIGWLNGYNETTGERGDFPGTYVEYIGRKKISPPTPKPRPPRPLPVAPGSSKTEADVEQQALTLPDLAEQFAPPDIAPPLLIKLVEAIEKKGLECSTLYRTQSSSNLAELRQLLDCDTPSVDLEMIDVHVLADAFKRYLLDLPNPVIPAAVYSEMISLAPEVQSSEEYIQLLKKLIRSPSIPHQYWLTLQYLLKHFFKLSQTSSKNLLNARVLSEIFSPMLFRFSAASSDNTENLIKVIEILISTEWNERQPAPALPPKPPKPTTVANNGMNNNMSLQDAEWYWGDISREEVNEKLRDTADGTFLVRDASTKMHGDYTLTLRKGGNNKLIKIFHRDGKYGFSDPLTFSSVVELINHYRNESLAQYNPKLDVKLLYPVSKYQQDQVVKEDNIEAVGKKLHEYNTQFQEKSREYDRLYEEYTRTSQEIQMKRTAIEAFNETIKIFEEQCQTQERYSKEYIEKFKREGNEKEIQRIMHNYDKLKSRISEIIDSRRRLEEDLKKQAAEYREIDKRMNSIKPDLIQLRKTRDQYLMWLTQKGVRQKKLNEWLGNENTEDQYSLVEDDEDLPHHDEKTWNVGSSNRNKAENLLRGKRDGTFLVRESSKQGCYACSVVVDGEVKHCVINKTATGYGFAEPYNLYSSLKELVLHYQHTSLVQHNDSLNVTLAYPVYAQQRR

For COc1ncc(-c2ccc3ncc(OCCN(C)C)c(=O)n3c2)cc1NS(=O)(=O)c1ccc(F)cc1Cl [Compound 1], which IC50 (PI3Kδ) is on record?
Its IC50 is 0.5 ± 0.1 nM.

And the IC50 (MCF-7 cells)?
The IC50 was at most 50 nM.
